Test results published in patent US20200255436A1, “CORTICOTROPIN RELEASING FACTOR RECEPTOR ANTAGONISTS” (Spruce Biosciences, Inc., priority 2019, published 2020).
≈ marks a conversion by molar mass, not a printed value. Read-outs that look alike come from different tables or passages of the source.

Legend:
[1] = Solubility in different aqueous media; format: physicochemical; settings: for solubility at 24 h: thermodynamic from solid
[2] = Study 1: single escalating oral dose pharmacokinetics, fed and fasted; format: in vivo, human; settings: for Cmax / Tmax / AUC(0-inf) / AUC(0-t) / Vd/F / half-life: human, plasma, po; for AUC(0-t): read-out: AUC0-tlast
Procedure: (§1) Study 1 was the first-in-human study that investigated the safety, tolerability, and PK of single-escalating doses of Compound 1, given orally, to healthy adult subjects. […] The data from this study were used for the selection of doses for Study 2.
In Study 1, Compound 1 was administered to healthy adult subjects as a single PO dose of 2, 10, 50, 150, 400, or 800 mg in the fed state and 150 mg in the fasted state. Absorption occurred moderately late, achieving peak Cmax between 4 to 6 hours following dosing in the fed state.
When Compound 1 was given in the fed state, median time to reach maximum plasma concentration (Tmax) occurred between 4 and 6 hours.
As part of this single-dose escalation study, a food effect PK investigation was performed to examine Compound 1 exposures in both the fed and fasted states at the 150-mg dose level. A total of 6 subjects were administered 150 mg Compound 1 in each of these 2 dosing groups. Of these 6 subjects, 4 subjects received Compound 1 at the same dose in both fed and fasted states. […] Table 2 provides a summary of the PK parameters at the 150-mg dose level under both fed and fasted state conditions.
PK parameters AUC0-∞ and Cmax were analyzed separately for dose proportionality for Compound 1 from 50 to 800 mg when administered in the fed state. […] Dose proportionality across administered doses in the fed state could not be concluded on the basis of AUC0-∞ or Cmax.

[3] = Phase 2 study in adults with classic CAH: safety; format: in vivo, human; settings: patients with CAH, 5-fold range of doses
From the text: Cohort A of the Phase 2 Study includes a 6-week, multiple-dose, dose escalation study of Compound 1 for the treatment of adults with classic CAH. After screening, eligible patients will be enrolled into a 6-week treatment period followed by a 4-week washout/safety follow-up period.
This cohort will be conducted in approximately 9 patients, who will receive Compound 1 daily for up to 6 weeks. Compound 1 will be administered as an oral daily dose. Patients will undergo titration of Compound 1 through three escalating dosage strengths at 2-week intervals. Patients will have overnight PK/PD assessments performed at baseline, which include an pre-dose overnight assessment and a post-dose overnight assessment for PK/PD following administration of the first dose. At the end of each 2-week dosing period, patients will return for single overnight visits for steady-state PK/PD assessments. A follow-up outpatient visit will occur 30 days after their last dose. Upon completion of the initial cohort (Cohort A), the study will proceed to a multiple ascending dose (MAD) design with up to 3 sequential cohorts (Cohorts B, C, and D) to further evaluate the safety, PK, and PD of various SPROO1 dosing regimens and to identify an optimal dose regimen. […]
• 1. […] To assess the efficacy of Compound 1 in subjects with classic CAH as measured by percent and absolute change in 17-OHP compared to baseline.

[4] = Phase 1 safety and tolerability (Study 1 and Study 2); format: in vivo, human; settings: healthy subjects
From the text: as §1
The 2-part multiple-dose study, Study 2, determined the safety and tolerability of repeated daily doses of Compound 1 and investigated the effects on biomarkers of relevance for the treatment of alcohol dependence.
The safety of Compound 1 was evaluated in 2 Phase 1 studies in healthy adult volunteers (Study 1 and Study 2). In both studies, adverse events (AEs), clinical laboratory tests, vital signs (supine blood pressure and pulse rate), and electrocardiograms (ECGs) were evaluated. Overall, in Study 1, Compound 1 was well-tolerated.

[5] = 50 mg, 50 mg single oral dose, fed, geometric mean
[6] = 150 mg, 150 mg single oral dose, fasted, geometric mean
[7] = 150 mg, 150 mg single oral dose, fed, geometric mean
[8] = 400 mg, 400 mg single oral dose, fed, geometric mean
[9] = 800 mg, 800 mg single oral dose, fed, geometric mean

CCC(CC)c1cc(C)nc2c(-c3sc(N4CCOCC4)nc3Cl)c(C)nn12 [Compound 1, 4-(4-chloro-5-(2,5-dimethyl-7-(pentan-3-yl)pyrazolo[1,5-a]pyrimidin-3-yl)thiazol-2-yl)morpholine]
Description (solubility) ([1]; 0.001N HCl, equilibrium pH 3.36): Insoluble | Description (solubility) ([1]; 0.01N HCl, equilibrium pH 2.06): Insoluble | Description (solubility) ([1]; 0.1N HCl, equilibrium pH 1.06): insoluble | Description (solubility) ([1]; 0.1N NaOH, equilibrium pH 11.65): Insoluble | Description (solubility) ([1]; FaSSIF, equilibrium pH 5.16): insoluble | Description (solubility) ([1]; FaSSIF, equilibrium pH 6.73): Insoluble | Description (solubility) ([1]; SGF, equilibrium pH 2.25): Insoluble | Description (solubility) ([1]; Water, equilibrium pH 7.78): insoluble | solubility at 24 h ([1]; aqueous buffer, 0.001N HCl, equilibrium pH 3.36, 24 hours at room temperature): 0.3 µg/mL (≈ 0.714 µM) | solubility at 24 h ([1]; aqueous buffer, 0.1N NaOH, equilibrium pH 11.65, 24 hours at room temperature): 0.2 µg/mL (≈ 0.476 µM) | Description (solubility) ([1]; pH 4.5 Acetate (USP), equilibrium pH 4.65): Insoluble | solubility at 24 h ([1]; pH 4.5 acetate buffer (USP), aqueous buffer, pH 4.5 Acetate (USP), equilibrium pH 4.65, 24 hours at room temperature): 0.5 µg/mL (≈ 1.19 µM) | Description (solubility) ([1]; pH 6.0 Phosphate (USP), equilibrium pH 6.08): Insoluble | solubility at 24 h ([1]; pH 6.0 phosphate buffer (USP), aqueous buffer, pH 6.0 Phosphate (USP), equilibrium pH 6.08, 24 hours at room temperature): 0.2 µg/mL (≈ 0.476 µM) | Description (solubility) ([1]; pH 7.5 Phosphate (USP), equilibrium pH 7.57): Insoluble | solubility at 24 h ([1]; pH 7.5 phosphate buffer (USP), aqueous buffer, pH 7.5 Phosphate (USP), equilibrium pH 7.57, 24 hours at room temperature): 0.6 µg/mL (≈ 1.43 µM) | solubility at 24 h ([1]; simulated gastric fluid, 0.01N HCl, equilibrium pH 2.06, 24 hours at room temperature): 0.4 µg/mL (≈ 0.952 µM) | solubility at 24 h ([1]; simulated gastric fluid, 0.1N HCl, equilibrium pH 1.06, 24 hours at room temperature): 1.8 µg/mL (≈ 4.29 µM) | solubility at 24 h ([1]; simulated gastric fluid, SGF, equilibrium pH 2.25, 24 hours at room temperature): 20.4 µg/mL (≈ 48.6 µM) | solubility at 24 h ([1]; FaSSIF, equilibrium pH 5.16, 24 hours at room temperature): 10.4 µg/mL (≈ 24.8 µM) | solubility at 24 h ([1]; FaSSIF, equilibrium pH 6.73, 24 hours at room temperature): 3.6 µg/mL (≈ 8.57 µM) | solubility at 24 h ([1]; Water, equilibrium pH 7.78, 24 hours at room temperature, n = 2): 0.3 µg/mL (≈ 0.714 µM) | CL/F ([2]; 50 mg single oral dose, fed, geometric mean): 302 L/h | CL/F ([2]; 150 mg single oral dose, fasted, geometric mean): 454 L/h | CL/F ([2]; 150 mg single oral dose, fed, geometric mean): 157 L/h | CL/F ([2]; 400 mg single oral dose, fed, geometric mean): 155 L/h | CL/F ([2]; 800 mg single oral dose, fed, geometric mean): 165 L/h | AUC0-∞ increase for every doubling of dose relative to dose proportionality ([2]; 50 to 800 mg, fed state): 1.74 times | mean AUC0-∞, fed state relative to fasted state ([2]; 150-mg single dose): approximately 3 fold | mean Cmax, fed state relative to fasted state ([2]; 150-mg single dose): ~11 fold | Cmax ([2]; 2 mg, 2 mg single oral dose, fed, geometric mean): 0.867 ng/mL | Tmax ([2]; 2 mg, 2 mg single oral dose, fed, median, read-out: Tmax): 6 h | Cmax ([2]; 10 mg, 10 mg single oral dose, fed, geometric mean): 3.01 ng/mL | Tmax ([2]; 10 mg, 10 mg single oral dose, fed, median, read-out: Tmax): 4 h | AUC(0-inf) [2, 5]: 165 ng·h/mL | Cmax [2, 5]: 19.5 ng/mL | AUC(0-t) [2, 5]: 152 ng·h/mL | Vd/F ([2]; 50 mg, 50 mg single oral dose, fed, geometric mean, read-out: VSS/F): 8080 L | Vd/F ([2]; 50 mg, 50 mg single oral dose, fed, geometric mean, read-out: VZ/F): 13500 L | half-life ([2]; 50 mg, 50 mg single oral dose, fed, geometric mean, read-out: t1/2 (converted)): 31 h | Tmax ([2]; 50 mg, 50 mg single oral dose, fed, median, read-out: Tmax): 4 h | AUC(0-inf) [2, 6]: 331 ng·h/mL | Cmax [2, 6]: 8.22 ng/mL | AUC(0-t) [2, 6]: 288 ng·h/mL | Vd/F ([2]; 150 mg, 150 mg single oral dose, fasted, geometric mean, read-out: VSS/F): 25200 L | Vd/F ([2]; 150 mg, 150 mg single oral dose, fasted, geometric mean, read-out: VZ/F): 25100 L | half-life ([2]; 150 mg, 150 mg single oral dose, fasted, geometric mean, read-out: t1/2 (converted)): 38.4 h | Tmax ([2]; 150 mg, 150 mg single oral dose, fasted, median, read-out: Tmax): 10.1 h | AUC(0-inf) [2, 7]: 956 ng·h/mL | Cmax [2, 7]: 93.4 ng/mL | AUC(0-t) [2, 7]: 891 ng·h/mL | Vd/F ([2]; 150 mg, 150 mg single oral dose, fed, geometric mean, read-out: VSS/F): 4600 L | Vd/F ([2]; 150 mg, 150 mg single oral dose, fed, geometric mean, read-out: VZ/F): 6620 L | half-life ([2]; 150 mg, 150 mg single oral dose, fed, geometric mean, read-out: t1/2 (converted)): 29.2 h | Tmax ([2]; 150 mg, 150 mg single oral dose, fed, median, read-out: Tmax): 4 h | AUC(0-inf) [2, 8]: 2580 ng·h/mL | Cmax [2, 8]: 207 ng/mL | AUC(0-t) [2, 8]: 2300 ng·h/mL | Vd/F ([2]; 400 mg, 400 mg single oral dose, fed, geometric mean, read-out: VSS/F): 6580 L | Vd/F ([2]; 400 mg, 400 mg single oral dose, fed, geometric mean, read-out: VZ/F): 9890 L | half-life ([2]; 400 mg, 400 mg single oral dose, fed, geometric mean, read-out: t1/2 (converted)): 44.2 h | Tmax ([2]; 400 mg, 400 mg single oral dose, fed, median, read-out: Tmax): 4 h | AUC(0-inf) [2, 9]: 4850 ng·h/mL | Cmax [2, 9]: 382 ng/mL | AUC(0-t) [2, 9]: 4390 ng·h/mL | Vd/F ([2]; 800 mg, 800 mg single oral dose, fed, geometric mean, read-out: VSS/F): 6820 L | Vd/F ([2]; 800 mg, 800 mg single oral dose, fed, geometric mean, read-out: VZ/F): 9970 L | half-life ([2]; 800 mg, 800 mg single oral dose, fed, geometric mean, read-out: t1/2 (converted)): 41.9 h | Tmax ([2]; 800 mg, 800 mg single oral dose, fed, median, read-out: Tmax): 6 h | half-life ([2]; after a single PO dose (fed and fasted state), across dose levels, read-out: Mean half-life (t1/2)): 31 to 44 h | Tmax ([2]; single oral doses 2-800 mg, fed state, read-out: median time to reach maximum plasma concentration (Tmax)): 4 to 6 h | tolerability [3]: generally well-tolerated | tolerability ([4]; Study 1, single oral doses up to 800 mg): well-tolerated | tolerability ([4]; Study 2, multiple doses up to 200 mg): generally well tolerated
